Measurements from paper PMC7949037, “The allosteric inhibition of glycine transporter 2 by bioactive lipid analgesics is controlled by penetration into a deep lipid cavity” (The Journal of Biological Chemistry, 2021).
Like-named read-outs stand apart in the source and are kept apart here. Marks after values point to notes of the source that are not given here.

Legend:
[1] = target: T1, human glycine transporter 2 (GlyT2 or SLC6A5) (Homo sapiens, UniProt Q9Y345); test: Inhibition of glycine transport currents, two-electrode voltage clamp in oocytes expressing WT GlyT2; assay type: cell-based; settings: for % Maximal inhibition / IC50: GlyT2; for IC50: 30 μM glycine, 95% confidence interval in brackets; for Fold less potent than the corresponding L-isomer: GlyT2 IC50, D-isomer versus L-isomer
T1 construct: expressed in transfected cells; host or cells: Xenopus laevis oocytes injected with cRNA
T1 sequence (Q9Y345 1-797): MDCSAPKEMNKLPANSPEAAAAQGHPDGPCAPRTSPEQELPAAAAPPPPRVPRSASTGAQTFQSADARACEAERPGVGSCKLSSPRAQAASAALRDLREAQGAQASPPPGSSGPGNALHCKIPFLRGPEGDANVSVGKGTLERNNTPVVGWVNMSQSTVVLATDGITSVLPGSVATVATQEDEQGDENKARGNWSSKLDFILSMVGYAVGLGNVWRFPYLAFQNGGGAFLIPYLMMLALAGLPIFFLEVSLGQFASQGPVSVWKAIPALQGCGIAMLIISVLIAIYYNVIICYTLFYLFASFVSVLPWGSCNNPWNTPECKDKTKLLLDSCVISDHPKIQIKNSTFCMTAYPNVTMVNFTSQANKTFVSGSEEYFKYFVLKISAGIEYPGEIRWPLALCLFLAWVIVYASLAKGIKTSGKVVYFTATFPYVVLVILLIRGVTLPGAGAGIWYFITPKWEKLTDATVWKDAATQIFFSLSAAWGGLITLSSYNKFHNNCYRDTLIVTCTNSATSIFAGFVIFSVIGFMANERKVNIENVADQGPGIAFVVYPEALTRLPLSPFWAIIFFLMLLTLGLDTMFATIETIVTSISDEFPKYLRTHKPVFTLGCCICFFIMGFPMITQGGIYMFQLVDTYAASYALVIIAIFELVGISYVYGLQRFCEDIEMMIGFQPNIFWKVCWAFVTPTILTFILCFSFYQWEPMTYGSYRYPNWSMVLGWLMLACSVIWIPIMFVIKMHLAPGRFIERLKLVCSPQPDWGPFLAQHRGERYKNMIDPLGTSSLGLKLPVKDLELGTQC
Procedure: All N-acyl amino acids were synthesized as previously described ([13]). See Supporting Information for full details. Stock solutions of 10 mg ml^−1 of N-acyl amino acids were dissolved in dimethyl sulfoxide and diluted in frog Ringer's solution (96 mM NaCl, 2 mM KCl, 1 mM MgCl2, 1.8 mM CaCl2, 5 mM Hepes, pH 7.5) to desired concentrations. Final solutions contained 0.0025% dimethyl sulfoxide, a concentration that had no effect on transporter or receptor function.
Human GlyT2a WT complementary DNA was subcloned into the plasmid oocyte transcription vector. The amplified GlyT2/plasmid oocyte transcription vector product was then transformed in Escherichia coli cells and subsequently purified using the PureLink Quick Plasmid Miniprep Kit (Invitrogen by Life Technologies) and sequenced by the Australian Genome Research Facility (Sydney, Australia). The purified plasmid DNA was linearized via the restriction enzyme, SpeI (New England Biolabs [Genesearch]) for GlyT2a. Complementary RNAs were synthesized using the mMESAGE mMACHINE T7 kit (Ambion).
All work involving the use of animals was performed in accordance with the Australian Code of Practice for the Care and Use of Animals for Scientific Purposes. […] Stage V oocytes were isolated from the lobe via digestion with 2 mg ml^−1 collagenase A (Boehringer) at 26 °C for 1 h, and 20 ng of cRNA encoding GlyT2 was injected into each oocyte cytoplasm (Drummond Nanoinject; Drummond Scientific Co). The oocytes were then stored in frog Ringer's solution (96 mM NaCl, 2 mM KCl, 1 mM MgCl2, 1.8 mM CaCl2, 5 mM Hepes, pH 7.5), which was supplemented with 2.5 mM sodium pyruvate, 0.5 mM theophylline, 50 μg/ml gentamicin and […] tetracycline. The oocytes were stored at 18 °C for 3 to 5 days, until transporter expression was adequate for measurement using the two-electrode voltage clamp technique. Adequate transporter expression was defined as a ≥30 nA current following application of the glycine EC50.
(§1) GlyT2 is electrogenic, allowing activation to be measured via the two-electrode voltage clamp technique. Oocytes were voltage clamped at −60 mV, and whole-cell currents generated by the substrate were recorded with a Geneclamp 500 amplifier (Axon Instruments), digitized by a Powerlab 2/20 chart recorder (ADInstruments). LabChart version 8 software (ADInstruments, Axon Instruments) was used to visualize and process current traces. Recordings were performed in frog Ringer's solution. Oocytes were placed in an oval-shaped bath with a volume of 0.3 ml, with laminar flow around the oocyte at a rate of 12 ml min^−1 under gravity feed.
(§2) Each of the synthesized acyl-lysine compounds were first tested for their inhibitory activity by coapplying the analogs with 30 μM glycine and assessing their ability to reduce glycine transport currents. Increasing concentrations of each acyl-lysine inhibitor were applied to generate concentration response curves, from which IC50 values and percent maximal inhibition values were calculated.

[2] = target: T2, GlyT1 (Homo sapiens, UniProt P48067); test: Selectivity test against GlyT1 transporter, two-electrode voltage clamp electrophysiology; assay type: cell-based
T2 construct: expressed in transfected cells
T2 sequence (P48067 1-706): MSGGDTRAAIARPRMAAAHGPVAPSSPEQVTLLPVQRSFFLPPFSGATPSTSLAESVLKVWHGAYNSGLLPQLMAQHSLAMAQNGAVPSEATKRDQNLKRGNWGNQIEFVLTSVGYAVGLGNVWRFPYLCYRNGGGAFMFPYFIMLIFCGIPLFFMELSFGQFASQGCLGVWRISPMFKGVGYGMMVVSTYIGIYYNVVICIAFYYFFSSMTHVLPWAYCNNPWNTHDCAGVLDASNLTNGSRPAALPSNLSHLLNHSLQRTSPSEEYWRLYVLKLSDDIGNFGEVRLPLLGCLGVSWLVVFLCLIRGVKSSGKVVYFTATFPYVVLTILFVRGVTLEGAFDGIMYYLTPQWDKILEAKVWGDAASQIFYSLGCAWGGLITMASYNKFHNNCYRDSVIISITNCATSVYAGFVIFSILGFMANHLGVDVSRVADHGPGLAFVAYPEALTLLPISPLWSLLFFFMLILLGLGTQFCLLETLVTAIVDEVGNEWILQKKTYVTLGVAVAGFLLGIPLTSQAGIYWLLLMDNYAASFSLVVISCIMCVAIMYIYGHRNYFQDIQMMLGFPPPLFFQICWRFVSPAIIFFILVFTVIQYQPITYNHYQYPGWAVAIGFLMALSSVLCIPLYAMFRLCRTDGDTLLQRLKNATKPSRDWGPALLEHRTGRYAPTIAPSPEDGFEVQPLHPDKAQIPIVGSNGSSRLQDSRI
Source text: The lipid inhibitors described previously contain 18 carbon acyl tails with a cis-double bond in the Δ9 position (i.e., nine bonds from the amide linkage to the amino acid head group), and penetration of the lipid tails into the allosteric site appears to be a critical determinant of inhibitory activity. To investigate the effect of tail length on GlyT2 inhibitory activity, we synthesized D- and L-lysine–based inhibitors with truncated tails. Double bonds were maintained in the Δ9 position, and overall chain lengths were reduced to C16 or C14 (C16ω7-Lys and C14ω5-Lys, respectively). The chemical structures of these new lipids are shown in Figure 1, and their synthesis and characterization are described in the Supporting information section. Newly synthesized acyl lysine analogs were then tested against GlyT2 and also tested for selectivity by testing against the closely related GlyT1 transporter using two-electrode voltage clamp electrophysiology (see Table 1 for inhibitory data).
as §1, §2

[3] = tested on: GlyT2; settings: most potent small molecule GlyT2 inhibitor to date, reference not given; cited from earlier work
[4] = target: T1, human glycine transporter 2 (GlyT2 or SLC6A5); settings: cited from earlier work; for % Maximal inhibition / IC50: previously published data, ref Mostyn et al., 2019 ([6]); for GlyT2 inhibitory activity in words: D-configuration head group
[5] = target: T2, GlyT1; design: method as in Mostyn et al., 2019 ([6]); settings: previously published data, ref Mostyn et al., 2019 ([6]), cited from earlier work
[6] = tested on: GlyT2 Y550L; design: method as in PMID 31621581; settings: mutagenesis data; cited from earlier work
[7] = tested on: GlyT2 W563L; design: method as in PMID 31621581; settings: mutagenesis data; cited from earlier work
[8] = cited from earlier work
[9] = cited from earlier work; remark: listed apart in the source
[10] = tested on: rat model of neuropathic pain; settings: cited from earlier work

In the case of CCCCCCC=CCCCCCCCC(=O)NC(CCCCN)C(=O)O [C16ω7-L-Lys], the “% Maximal inhibition” value ([1]; L-Head group stereochemistry) is reported as 90.2 ± 2.1%, the IC50 ([1]; L-Head group stereochemistry) is reported as 66.6 nM and the IC50 ([2]; L-Head group stereochemistry) is reported as over 3000 nM.

In the case of CCCC/C=C\CCCCCCCC(=O)N[C@H](CCCCN)C(=O)O [C14ω5-D-Lys], the “% Maximal inhibition” value ([1]; D-Head group stereochemistry) is reported as 79.7 ± 3.6%, the IC50 ([1]; D-Head group stereochemistry) is reported as 1380 nM and the IC50 ([2]; D-Head group stereochemistry) is reported as over 3000 nM.

In the case of COc1cc(C(=O)NCC2(N(C)C)CCCC2)cc(OC)c1OCc1ccccc1 [ORG25543], the IC50 [3] is given as 16 nM.

In the case of CCCCCCCC/C=C\CCCCCCCC(=O)N[C@@H](CCCCN)C(=O)O [C18ω9-L-Lys, oleoyl-L-lysine], the “% Maximal inhibition” value ([4]; L-Head group stereochemistry) is given as 86.8 ^a %, the IC50 ([4]; L-Head group stereochemistry) is given as 0.0255 µM and the IC50 ([5]; L-Head group stereochemistry) is given as over 3000 nM. The “Inhibition of GlyT2 Y550L mutant” value [6] was “not inhibited” and the “Inhibition of GlyT2 W563L mutant” value [7] was “not inhibited”.

In the case of CCCCC=CCCCCCCCC(=O)NC(CCCCN)C(=O)O [C14ω5-L-Lys], the “% Maximal inhibition” value ([1]; L-Head group stereochemistry) is reported as 96.2 ± 7.3%, the IC50 ([1]; L-Head group stereochemistry) is reported as 703 nM and the IC50 ([2]; L-Head group stereochemistry) is reported as over 3000 nM.

In the case of CCC=CCCCCCCCCCCCC(=O)NC(CCCCN)C(=O)O [C16ω3-L-Lys], the “% Maximal inhibition” value ([1]; L-Head group stereochemistry) is reported as 94.9 ± 1.6%, the IC50 ([1]; L-Head group stereochemistry) is reported as 10.8 nM and the IC50 ([2]; L-Head group stereochemistry) is reported as over 3000 nM.

For CCCCCCCCC=CCCCCCCCC(=O)NC(Cc1c[nH]c2ccccc12)C(=O)O [C18ω9-L-Trp], the “% Maximal inhibition” value ([4]; L-Head group stereochemistry) is listed as 86.2 ^a %, the IC50 ([4]; L-Head group stereochemistry) is listed as 0.0546 µM and the IC50 ([5]; L-Head group stereochemistry) is listed as over 10000 nM.

In the case of CCCCCCCC/C=C\CCCCCCCC(=O)N[C@H](CCCCN)C(=O)O [C18ω9-D-Lys, oleoyl D-lysine], the “% Maximal inhibition” value ([4]; D-Head group stereochemistry) is given as 91.0 ^a %, the IC50 ([4]; D-Head group stereochemistry) is given as 0.0483 µM and the “GlyT2 inhibitory activity in words” value [4] is given as “retains potency”. For the same compound, the IC50 ([5]; D-Head group stereochemistry) was over 3000 nM, the “Inhibition of GlyT2 Y550L mutant” value [6] was “not inhibited” and the “Inhibition of GlyT2 W563L mutant” value [7] was “not inhibited”. For the same compound, the Metabolic stability [8] was “metabolically stable”, the Blood-brain barrier permeability [9] was “blood–brain barrier permeable” and the Analgesia [10] was “produces analgesia”. The Side effects [10] was “minimal side effects”.

For CCC=CCCCCCCCCCCCC(=O)NC(CCCCN)C(=O)O [C16ω3-D-Lys], the “% Maximal inhibition” value ([1]; D-Head group stereochemistry) was 91.8 ± 8.6%, the IC50 ([1]; D-Head group stereochemistry) was 699 nM and the “Fold less potent than the corresponding L-isomer” value [1] was 65 fold. The IC50 ([2]; D-Head group stereochemistry) was over 3000 nM.

With CCCCC=CCCCCCCCCCCCC(=O)NC(CCCCN)C(=O)O [C18ω5-L-Lys] the “% Maximal inhibition” value ([1]; L-Head group stereochemistry) was 81.3 ± 5.1%, the IC50 ([1]; L-Head group stereochemistry) was 67.5 nM and the IC50 ([2]; L-Head group stereochemistry) was over 3000 nM.

For CCCCCCCCC=CCCCCCCCC(=O)NC(Cc1c[nH]c2ccccc12)C(=O)O [C18ω9-D-Trp], the “% Maximal inhibition” value ([4]; D-Head group stereochemistry) is given as 14.2 ^a %, the IC50 ([4]; D-Head group stereochemistry, μM) is given as over 10 µM and the “GlyT2 inhibitory activity in words” value [4] is given as “inactive”. The IC50 ([5]; D-Head group stereochemistry) was over 10000 nM.

For CCCCCC/C=C\CCCCCCCC(=O)N[C@H](CCCCN)C(=O)O [C16ω7-D-Lys], the “% Maximal inhibition” value ([1]; D-Head group stereochemistry) was 96.2 ± 2.1%, the IC50 ([1]; D-Head group stereochemistry) was 602 nM and the “Fold reduced potency relative to C18ω9-D-Lys” value ([1]; GlyT2 IC50) was 12 fold. The “Fold less potent than the corresponding L-isomer” value [1] was “ninefold” and the IC50 ([2]; D-Head group stereochemistry) was over 3000 nM.

With CCCCC=CCCCCCCCCCCCC(=O)NC(CCCCN)C(=O)O [C18ω5-D-Lys] the “% Maximal inhibition” value ([1]; D-Head group stereochemistry) was 87.6 ± 3.7%, the IC50 ([1]; D-Head group stereochemistry) was 64.9 nM and the IC50 ([2]; D-Head group stereochemistry) was over 3000 nM.
